Data reported in patent US20260168987A1, “OBLIQUE LINE SCANNER SYSTEMS AND METHODS FOR HIGH THROUGHPUT SINGLE MOLECULE TRACKING IN LIVING CELLS” (EIKON THERAPEUTICS, INC., priority 2022, published 2026).

Tested on: Halo-PCNA U2OS cells
Assay: Cell cycle phase assignment by machine learning model in Halo-PCNA U2OS cells
Type: cell-based
Settings: 2 mM Thymidine (S-phase block) or RO-3306 (G2-M block) per FIG. 20B legend
Method: Time-lapse microscopy was conducted on Halo-PCNA labeled with 50 nM JFX650, to achieve near-saturating labeling, for 12 hours at 12 frames per hour (FIG. 21A). A machine learning model was then trained using both manually assigned cell stages and time-based progression resulting in both a G1, early S, mid S, late S, G2 and mitosis classifier as well as a regression prediction across the continuum of the cell cycle (FIG. 21B). The predicted cell cycle classification performed well as compared to manual annotation (FIG. 21C). Clear progression of individual cells through the cell cycle was observed when regression prediction was plotted across the time series (FIG. 21D). […] When cells in each cell phase were analyzed separately, it became apparent that the slow-moving population of PCNA was exclusively found in cell predicted to be in S-phase and that there was a marked decrease in the fast-moving population (FIG. 20E). Mean diffusion coefficient of PCNA was then measured for 4,081 individual cells to characterize heterogeneity across the cell population, which is described in large part by cell cycle (FIG. 20F).
Cell cycle as provided above can be automatically determined using an image (e.g., an image of JF549-labeled PCNA). […]

**Q.** Which “fraction of cells assigned to cell phases” value does the source give for O=C1NC(=NCc2cccs2)S/C1=C\c1ccc2ncccc2c1 [RO-3306] here?
**A.** expected enrichment in the fraction of cells assigned to the respective cell phases

**Q.** With Cc1cn([C@H]2C[C@H](O)[C@@H](CO)O2)c(=O)[nH]c1=O [thymidine] as the molecule, how does the “fraction of cells assigned to cell phases” value read?
**A.** expected enrichment in the fraction of cells assigned to the respective cell phases
